Source: patent US9604961B2, “Histone demethylase inhibitors” (Celgene Quanticel Research, Inc., priority 2012, dated 2017)

Assays:
Assay type in all cases: biochemical
Jarid1A = Jarid1A (Homo sapiens (Human), UniProt P29375); test: Jarid1A in vitro enzyme inhibition assay (TR-FRET)
Text: The enzymatic assay of Jarid1A activity is based upon Time Resolved-Fluorescence Resonance Energy Transfer (TR-FRET) detection.

JMJD2C = JMJD2C (Homo sapiens (Human), UniProt Q9H3R0); test: JMJD2C in vitro enzyme inhibition assay (TR-FRET)
Method: Baculovirus expressed JMJD2C (GenBank Accession #BC143571, AA 2-372) was purchased from BPS Bioscience (Cat#50105).
The ability of test compounds to inhibit the activity of JMJD2C was determined in 384-well plate format under the following reaction conditions: 0.3 nM JMJD2C, 300 nM H3K9me3-biotin labeled peptide (Anaspec cat #64360), 2 μM alpha-ketoglutaric acid in assay buffer of 50 mM HEPES, pH7.3, 0.005% Brij35, 0.5 mM TCEP, 0.2 mg/ml BSA, 50 μM sodium L-ascorbate, and 2 μM ammonium iron(II) sulfate. Reaction product was determined quantitatively by TR-FRET after the addition of detection reagent Phycolink Streptavidin-allophycocyanin (Prozyme) and Europium-anti-di-methylated histone H3 lysine 9 (H3K9me2) antibody (PerkinElmer) in the presence of 5 mM EDTA in LANCE detection buffer (PerkinElmer) at a final concentration of 50 nM and 1 nM, respectively.
The assay reaction was initiated by the following: 2 μl of the mixture of 900 nM H3K9me3-biotin labeled peptide and 6 μM alpha-ketoglutaric acid with 2 μl of 11-point serial diluted inhibitor in 3% DMSO were added to each well of the plate, followed by the addition of 2 μl of 0.9 nM JMJD2C to initiate the reaction. The reaction mixture was incubated at room temperature for 30 minutes, and terminated by the addition of 6 μl of 5 mM EDTA in LANCE detection buffer containing 100 nM Phycolink Streptavidin-allophycocyanin and 2 nM Europium-anti-H3K9me2 antibody. Plates were read by EnVisionMultilabel Reader in TR-FRET mode (excitation at 320 nm, emission at 615 nm and 665 nm) after 1 hour incubation at room temperature. A ratio was calculated (665/615) for each well and fitted to determine inhibition constant (IC50).

Jarid1B = Jarid1B (Homo sapiens (Human), UniProt Q9UGL1); test: Jarid1B in vitro enzyme inhibition assay (TR-FRET)
Jarid1B, sequence (Q9UGL1 2-751): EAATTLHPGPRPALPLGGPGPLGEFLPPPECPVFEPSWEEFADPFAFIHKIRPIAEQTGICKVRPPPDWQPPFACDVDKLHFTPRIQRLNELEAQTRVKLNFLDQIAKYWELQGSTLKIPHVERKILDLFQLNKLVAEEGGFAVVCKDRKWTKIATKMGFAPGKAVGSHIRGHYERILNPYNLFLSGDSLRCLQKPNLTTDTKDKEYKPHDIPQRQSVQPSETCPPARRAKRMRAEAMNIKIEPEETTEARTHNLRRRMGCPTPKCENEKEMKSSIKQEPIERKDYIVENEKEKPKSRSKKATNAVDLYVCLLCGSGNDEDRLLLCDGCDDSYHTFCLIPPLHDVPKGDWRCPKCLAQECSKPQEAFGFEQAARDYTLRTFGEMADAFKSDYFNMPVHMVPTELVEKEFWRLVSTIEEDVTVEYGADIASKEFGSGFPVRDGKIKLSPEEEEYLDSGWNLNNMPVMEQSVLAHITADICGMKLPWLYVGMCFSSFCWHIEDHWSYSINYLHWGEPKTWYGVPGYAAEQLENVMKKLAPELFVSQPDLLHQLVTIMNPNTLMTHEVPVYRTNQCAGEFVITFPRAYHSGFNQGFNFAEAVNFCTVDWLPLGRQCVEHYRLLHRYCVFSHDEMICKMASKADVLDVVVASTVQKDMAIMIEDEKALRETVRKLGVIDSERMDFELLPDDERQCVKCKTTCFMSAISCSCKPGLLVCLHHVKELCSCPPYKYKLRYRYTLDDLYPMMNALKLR
Method: This assay determines the ability of a test compound to inhibit Jarid1A, Jarid1B, JMJD2C, and JMJD2A demethylase activity.
The ability of test compounds to inhibit the activity of Jarid1B was determined in 384-well plate format under the following reaction conditions: 0.8 nM Jarid1B, 300 nM H3K4me3-biotin labeled peptide (Anaspec cat #64357), 2 μM alpha-ketoglutaric acid in assay buffer of 50 mM HEPES, pH7.3, 0.005% Brij35, 0.5 mM TCEP, 0.2 mg/ml BSA, 50 μM sodium L-ascorbate, and 2 μM ammonium iron(II) sulfate. Reaction product was determined quantitatively by TR-FRET after the addition of detection reagent Phycolink Streptavidin-allophycocyanin (Prozyme) and Europium-anti-mono- or di-methylated histone H3 lysine 4 (H3K4me1-2) antibody (PerkinElmer) in the presence of 5 mM EDTA in LANCE detection buffer (PerkinElmer) at a final concentration of 25 nM and 1 nM, respectively.
The assay reaction was initiated by the following: 2 μl of the mixture of 900 nM H3K4me3-biotin labeled peptide and 6 μM alpha-ketoglutaric acid with 2 μl of 11-point serial diluted inhibitor in 3% DMSO was added to each well of the plate, followed by the addition of 2 μl of 2.4 nM Jarid1B to initiate the reaction. The reaction mixture was incubated at room temperature for 30 minutes, and terminated by the addition of 6 μl of 5 mM EDTA in LANCE detection buffer containing 50 nM Phycolink Streptavidin-allophycocyanin and 2 nM Europium-anti-H3K4me1-2 antibody. Plates were read by EnVisionMultilabel Reader in TR-FRET mode (excitation at 320 nm, emission at 615 nm and 665 nm) after 1 hour incubation at room temperature. A ratio was calculated (665/615) for each well and fitted to determine inhibition constant (IC50).

JMJD2C, sequence (Q9H3R0 2-372): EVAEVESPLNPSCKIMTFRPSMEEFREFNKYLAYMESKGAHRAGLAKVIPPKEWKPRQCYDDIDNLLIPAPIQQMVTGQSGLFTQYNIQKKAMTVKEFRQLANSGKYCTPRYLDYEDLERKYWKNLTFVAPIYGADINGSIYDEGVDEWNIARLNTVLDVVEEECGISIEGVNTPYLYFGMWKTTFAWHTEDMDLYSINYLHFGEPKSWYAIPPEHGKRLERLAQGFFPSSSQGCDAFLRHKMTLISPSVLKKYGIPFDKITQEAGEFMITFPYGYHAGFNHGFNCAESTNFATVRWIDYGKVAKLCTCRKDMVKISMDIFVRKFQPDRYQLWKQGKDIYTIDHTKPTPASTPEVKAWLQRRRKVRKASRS
Jarid1A, sequence (P29375 1-1090): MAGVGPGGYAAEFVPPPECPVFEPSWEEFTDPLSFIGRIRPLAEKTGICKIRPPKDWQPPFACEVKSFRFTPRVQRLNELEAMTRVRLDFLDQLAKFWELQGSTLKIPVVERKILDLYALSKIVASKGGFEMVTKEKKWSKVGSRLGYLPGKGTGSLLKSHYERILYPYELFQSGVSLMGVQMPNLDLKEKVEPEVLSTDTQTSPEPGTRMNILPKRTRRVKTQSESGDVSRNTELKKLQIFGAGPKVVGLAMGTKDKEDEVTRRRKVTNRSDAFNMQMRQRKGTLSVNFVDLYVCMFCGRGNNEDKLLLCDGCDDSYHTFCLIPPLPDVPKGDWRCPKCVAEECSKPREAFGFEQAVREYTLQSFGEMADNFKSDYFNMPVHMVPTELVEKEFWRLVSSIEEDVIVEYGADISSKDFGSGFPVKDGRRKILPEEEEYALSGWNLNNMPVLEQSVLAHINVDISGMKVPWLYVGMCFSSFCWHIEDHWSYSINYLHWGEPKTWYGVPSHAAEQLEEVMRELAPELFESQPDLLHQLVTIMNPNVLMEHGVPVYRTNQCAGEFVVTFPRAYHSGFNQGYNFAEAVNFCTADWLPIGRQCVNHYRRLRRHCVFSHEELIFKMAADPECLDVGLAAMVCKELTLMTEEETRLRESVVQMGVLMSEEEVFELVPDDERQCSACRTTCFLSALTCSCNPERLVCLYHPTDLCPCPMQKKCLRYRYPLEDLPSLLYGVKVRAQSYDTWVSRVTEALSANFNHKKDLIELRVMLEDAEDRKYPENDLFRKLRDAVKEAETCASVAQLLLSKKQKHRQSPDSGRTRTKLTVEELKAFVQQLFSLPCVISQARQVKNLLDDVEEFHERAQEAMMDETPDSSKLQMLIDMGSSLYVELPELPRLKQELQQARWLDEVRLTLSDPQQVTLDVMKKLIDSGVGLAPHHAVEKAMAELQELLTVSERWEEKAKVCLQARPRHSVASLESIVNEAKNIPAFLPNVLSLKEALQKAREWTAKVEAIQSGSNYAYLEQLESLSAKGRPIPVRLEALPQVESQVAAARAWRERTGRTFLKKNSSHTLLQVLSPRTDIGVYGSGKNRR

Row | SMILES | IC50 (Jarid1A) | IC50 (JMJD2C) | IC50 (Jarid1B)
1 | CC(Oc1ccnn1-c1cc(C(=O)O)ccn1)c1ccc(F)cc1 (stereo not drawn) [Example 82, 2-[5-[1-(4-fluorophenyl)ethoxy]pyrazol-1-yl]pyridine-4-carboxylic acid] | < 0.1 µM | 0.1 to 1 µM | < 0.1 µM
2 | O=C(O)c1ccnc(-n2nccc2OCC2CC(F)(F)C2)c1 [Example 83, 2-[5-[(3,3-difluorocyclobutyl)methoxy]pyrazol-1-yl]pyridine-4-carboxylic acid] | < 0.1 µM | < 0.1 µM | < 0.1 µM
3 | Cc1cnn(-c2cc(C(=O)O)ccn2)c1OCc1ccc(F)cc1 [Example 84, 2-[5-[(4-fluorophenyl)methoxy]-4-methylpyrazol-1-yl]pyridine-4-carboxylic acid] | < 0.1 µM | 0.1 to 1 µM | < 0.1 µM
4 | CCc1cnn(-c2cc(C(=O)O)ccn2)c1OCc1ccc(F)cc1 [Example 85, 2-[4-ethyl-5-[(4-fluorophenyl)methoxy]pyrazol-1-yl]pyridine-4-carboxylic acid] | < 0.1 µM | 0.1 to 1 µM | < 0.1 µM
5 | O=C(O)c1ccnc(-n2nccc2OCc2ccc(F)cc2F)c1 [Example 86, 2-[5-[(2,4-difluorophenyl)methoxy]pyrazol-1-yl]pyridine-4-carboxylic acid] | < 0.1 µM | 0.1 to 1 µM | < 0.1 µM
6 | O=C(O)c1ccnc(-n2nccc2OCc2ccc(Cl)cc2Cl)c1 [Example 88, 2-[5-[(2,4-dichlorophenyl)methoxy]pyrazol-1-yl]pyridine-4-carboxylic acid] | < 0.1 µM | 0.1 to 1 µM | < 0.1 µM
7 | COc1cc(Cl)ccc1COc1ccnn1-c1cc(C(=O)O)ccn1 [Example 90, 2-[5-[(4-chloro-2-methoxyphenyl)methoxy]pyrazol-1-yl]pyridine-4-carboxylic acid] | < 0.1 µM | < 0.1 µM | < 0.1 µM
8 | O=C(O)c1ccnc(-n2nccc2OCc2ccc(Cl)c(C(F)(F)F)c2)c1 [Example 91, 2-[5-[[4-chloro-3-(trifluoromethyl)phenyl]methoxy]pyrazol-1-yl]pyridine-4-carboxylic acid] | < 0.1 µM | 0.1 to 1 µM | < 0.1 µM
9 | Cc1ccc(COc2ccnn2-c2cc(C(=O)O)ccn2)cc1F [Example 93, 2-[5-[(3-fluoro-4-methylphenyl)methoxy]pyrazol-1-yl]pyridine-4-carboxylic acid] | < 0.1 µM | < 0.1 µM | < 0.1 µM
10 | Cc1ccc(COc2ccnn2-c2cc(C(=O)O)ccn2)c(F)c1F [Example 94, 2-[5-[(2,3-difluoro-4-methylphenyl)methoxy]pyrazol-1-yl]pyridine-4-carboxylic acid] | < 0.1 µM | < 0.1 µM | < 0.1 µM
11 | CCc1ccc(COc2ccnn2-c2cc(C(=O)O)ccn2)cc1Cl [Example 95, 2-[5-[(3-chloro-4-ethylphenyl)methoxy]pyrazol-1-yl]pyridine-4-carboxylic acid] | < 0.1 µM | 0.1 to 1 µM | < 0.1 µM
12 | CCc1ccc(COc2ccnn2-c2cc(C(=O)O)ccn2)cc1F [Example 96, 2-[5-[(4-ethyl-3-fluorophenyl)methoxy]pyrazol-1-yl]pyridine-4-carboxylic acid] | < 0.1 µM | 0.1 to 1 µM | < 0.1 µM
13 | N#Cc1cccc(COc2ccnn2-c2cc(C(=O)O)ccn2)c1 [Example 97, 2-[5-[(3-cyanophenyl)methoxy]pyrazol-1-yl]pyridine-4-carboxylic acid] | < 0.1 µM | < 0.1 µM | < 0.1 µM
14 | O=C(O)c1ccnc(-n2ncc(CCO)c2OCc2ccc(F)cc2)c1 [Example 109, 2-[5-[(4-fluorophenyl)methoxy]-4-(2-hydroxyethyl)pyrazol-1-yl]pyridine-4-carboxylic acid] | < 0.1 µM | 1 to 10 µM | < 0.1 µM
15 | CN(C)CCc1cnn(-c2cc(C(=O)O)ccn2)c1OCc1ccc(F)cc1 [Example 110, 2-[4-[2-(dimethylamino)ethyl]-5-[(4-fluorophenyl)methoxy]pyrazol-1-yl]pyridine-4-carboxylic acid] | < 0.1 µM | 0.1 to 1 µM | < 0.1 µM

Other lines, results leading:

Row | IC50 (Jarid1A) | IC50 (JMJD2C) | IC50 (Jarid1B) | SMILES
16 | 0.1 to 1 µM | 1 to 10 µM | 0.1 to 1 µM | CC(C)Oc1cc(Cl)ccc1COc1ccnn1-c1cc(C(=O)O)ccn1 [Example 113, 2-[5-[(4-chloro-2-propan-2-yloxyphenyl)methoxy]pyrazol-1-yl]pyridine-4-carboxylic acid]
17 | 0.1 to 1 µM | 1 to 10 µM | 0.1 to 1 µM | CCC(C)Oc1cc(Cl)ccc1COc1ccnn1-c1cc(C(=O)O)ccn1 (stereo not drawn) [Example 114, 2-[5-[(2-butan-2-yloxy-4-chlorophenyl)methoxy]pyrazol-1-yl]pyridine-4-carboxylic acid]
18 | < 0.1 µM | 0.1 to 1 µM | < 0.1 µM | COCCOc1cc(Cl)ccc1COc1ccnn1-c1cc(C(=O)O)ccn1 [Example 116, 2-[5-[[4-chloro-2-(2-methoxyethoxy)phenyl]methoxy]pyrazol-1-yl]pyridine-4-carboxylic acid]
19 | 0.1 to 1 µM | 1 to 10 µM | 0.1 to 1 µM | O=C(O)c1ccnc(-n2nccc2OCc2ccc(F)cc2/C=C/c2ccc(F)cc2)c1 [Example 119, 2-[5-[[4-fluoro-2-[(E)-2-(4-fluorophenyl)ethenyl]phenyl]methoxy]pyrazol-1-yl]pyridine-4-carboxylic acid]
20 | 0.1 to 1 µM | 1 to 10 µM | 0.1 to 1 µM | O=C(O)c1ccnc(-n2nccc2OCc2ccc(Cl)cc2/C=C/c2ccc(F)cc2)c1 [Example 120, 2-[5-[[4-chloro-2-[(E)-2-(4-fluorophenyl)ethenyl]phenyl]methoxy]pyrazol-1-yl]pyridine-4-carboxylic acid]
21 | 0.1 to 1 µM | 1 to 10 µM | 0.1 to 1 µM | O=C(O)c1ccnc(-n2nccc2OCc2ccc(F)cc2CCc2ccc(F)cc2)c1 [Example 121, 2-[5-[[4-fluoro-2-[2-(4-fluorophenyl)ethyl]phenyl]methoxy]pyrazol-1-yl]pyridine-4-carboxylic acid]
22 | 0.1 to 1 µM | 1 to 10 µM | 0.1 to 1 µM | O=C(O)c1ccnc(-n2nccc2OCc2ccc(Cl)cc2CCc2ccc(F)cc2)c1 [Example 122, 2-[5-[[4-chloro-2-[2-(4-fluorophenyl)ethyl]phenyl]methoxy]pyrazol-1-yl]pyridine-4-carboxylic acid]
23 | < 0.1 µM | 0.1 to 1 µM | < 0.1 µM | O=C(O)c1ccnc(-n2nccc2OCc2cccc3c2OCC3)c1 [Example 123, 2-[5-(2,3-dihydro-1-benzofuran-7-ylmethoxy)pyrazol-1-yl]pyridine-4-carboxylic acid]
24 | < 0.1 µM | 0.1 to 1 µM | < 0.1 µM | CCc1cc(C#N)ccc1COc1ccnn1-c1cc(C(=O)O)ccn1 [Example 126, 2-[5-[(4-cyano-2-ethylphenyl)methoxy]pyrazol-1-yl]pyridine-4-carboxylic acid]
25 | < 0.1 µM | 0.1 to 1 µM | < 0.1 µM | Cc1cc(F)ccc1COc1ccnn1-c1cc(C(=O)O)ccn1 [Example 128, 2-[5-[(4-fluoro-2-methylphenyl)methoxy]pyrazol-1-yl]pyridine-4-carboxylic acid]
